Entries after “also recorded” stand apart in the source; their conditions may differ.
What was measured:
[1] = target: Apo-RBP (Homo sapiens, UniProt P02753); test: Fluorescence quenching study with Apo-RBP (Example 15); type: binding
Description: Apo-RBP at 0.5 μM was incubated with 0, 0.25, 0.5, 1 and 2 μM of MPR in PBS at room temperature for 1 hour, respectively. As controls, the same concentration of Apo-RBP was also incubated with 1 μM of HPR or 1 μM of atROL. All mixtures contained 0.2% Ethanol (v/v). The emission spectra were measured between 290 nm to 550 nm with excitation wavelength at 280 nm and 3 nm bandpass.

[2] = target: TTR binding to RBP (Homo sapiens, UniProt P02753); test: Size exclusion study of TTR binding to RBP (Example 16); settings: for binding of ligand-RBP to TTR: 10 μM RBP, 10 μM TTR, room temperature, 1 hour
Description: Apo-RBP at 10 μM was incubated with 50 μM of MPR in PBS at room temperature for 1 hour. 10 μM of TTR was then added to the solution, and the mixture was incubated for another hour at room temperature. 50 μl of the sample mixtures with and without TTR addition were analyzed by BioRad Bio-Sil SEC125 Gel Filtration Column (300×7.8 mm). In control experiments, atROL-RBP and atROL-RBP-TTR mixture were analyzed in the same manner.

[3] = test system: abca4 null mutant mice; test: A2E and A2PE-H2 in eyes after chronic treatment (HPLC); type: in vivo, mouse; settings: 13-cis retinoic acid 40 mg/kg, chronic (1 month)
Description: Tissue Extraction. Eye samples were thawed on ice in 1 ml of PBS, pH 7.2 and homogenized by hand using a Duall glass-glass homogenizer. The sample was further homogenized following the addition of 1 ml chlorofomm/methanol (2:1, v/v). The sample was transferred to a boroscilicate tube and lipids were extracted into 4 mls of chloroform. The organic extract was washed with 3 mls PBS, pH 7.2 and the samples were then centrifuged at 3,000×g, 10 min. The choloroform phase was decanted and the aqueous phase was re-extracted with another 4 mls of chloroform. Following centrifugation, the chloroform phases were combined and the samples were taken to dryness under nitrogen gas. Samples residues were resuspended in 100 μl hexane and analyzed by HPLC as described below.
HPLC Analysis. Chromatographic separations were achieved on an Agilent Zorbax Rx-Sil Column (5 μm, 4.6×250 mm) using an Agilent 1100 series liquid chromatograph equipped with fluorescence and diode array detectors. The mobile phase (hexane/2-propanol/ethanol/25 mM KH2PO4, pH 7.0/acetic acid; 485/376/100/50/0.275, v/v) was delivered at 1 ml/min. Sample peak identification was made by comparison to retention time and absorbance spectra of authentic standards. Data are reported as peak fluorescence (L.U.) obtained from the fluorescence detector.
We initiated a one-month study to evaluate the effects of HPR on reduction of A2E and A2E precursors in abca4 null mutant mice. HPR was administered in DMSO (20 mg/kg, ip) to abca4 null mutant mice (BL6/129, aged 2 months) daily for a period of 28 days. Control age/strain matched mice received only the DMSO vehicle. Mice were sampled at 0, 14, and 28 days (n=3 per group), the eyes were enucleated and chloroform-soluble constituents (lipids, retinoids and lipid-retinoid conjugates) were extracted. Mice were sacrificed by cervical dislocation, the eyes were enucleated and individually snap frozen in cryo vials. The sample extracts were then analyzed by HPLC with on-line fluorescence detection. Results from this study show remarkable, early reductions in the A2E precursor, A2PE-H2, see FIG. 4a, and subsequent reductions in A2E, see FIG. 4b. […] A similar study may be undertaken to ascertain effects of HPR treatment on the electroretinographic and morphological phenotypes.
ABCA4 null mutant mice were given the indicated dose of HPR in DMSO or DMSO alone daily for 28 days (n=16 mice per treatment group). At study onset, mice in the 2.5 mg/kg group were 2 months of age, mice in the other treatment groups were 3 months of age. At the indicated times, representative mice were taken from each group (n =4) for analysis of A2E precursor compounds (see FIG. 10, A2PE-H2, panels A, C and E) and A2E (see FIG. 10, panels B, D and F). Eyes were enucleated, hemisected and lipid soluble components were extracted from the posterior pole by chloroform/methanol-water phase partitioning. Sample extracts were analyzed by LC. Identity of the eluted compounds was confirmed by UV-vis absorption spectroscopy and co-elution of sample peaks with authentic standards. Note: limitations in appropriately age and strain-matched mice in the 10 mg/kg group prevented analysis at the 14-day interval.
Extraction and Analysis of Retinoids and A2E. Steady-state levels of retinoids and A2E in eyecups of ABCA4−/− mice were determined following daily administration (28 days) of HPR (FIG. 12). Mice were sacrificed, the eyes enucleated, and the posterior portion of each eye was used for extraction of retinoids or A2E. Methodologies used for extraction of retinoids and A2E from eye tissue and HPLC analysis techniques have been described. See, e.g., Mata N L, Weng J, Travis G H. Biosynthesis of a major lipofuscin fluorophore in mice and humans with ABCR-mediated retinal and macular degeneration. Proc Natl Acad Sci USA. 2000; 97:7154-7159; Weng J, et al.; Cell. 1999;98:13-23; Mata N L, et al.; Invest. Ophthalmol. Visual Sci. 2001; 42:1685-1690. […]

[4] = test system: wild-type and abca4 −/− mice; settings: mouse, in vivo
Excerpt: Delayed-dark adaptation can be further exacerbated by compounds which reduce the rate of rhodopsin regeneration (e.g., 13-cis retinoic acid). Although compounds such as HPR, which reduce total ocular retinoid levels, may also contribute to delayed-dark adaptation, the effect is less pronounced. This point was illustrated in studies which examined the effects of chronic (1 month) 13-cis retinoic acid or HPR administration on electrophysiology of the retina. […] Following exposure to a light source which bleaches approximately 40% of the visual chromophore, wild-type mice require ˜1 hour to regain dark sensitivity (1.0 value on the y-axis); untreated abca4 −/− mice require ˜3-4 hours. 13-cis retinoic acid treatment prolongs the time required to regain dark sensitivity to several hours. […] This finding is relevant for human patients affected with AMD.
Panels D-F of FIG. 9 are electrophysiological measurements of rod function (panel D), rod and cone function (panel E) and recovery from photobleaching (panel F).

[5] = test system: abca4 −/− mice; test: A2E levels after withdrawal of chronic treatment; type: in vivo, mouse
Description: Latent Effects of HPR on Arresting A2E Accumulation —One feature identified during the HPR trials was a therapeutic latency effect following withdrawal of HPR. In these studies, chronic treatment of abca4 −/− mice (10 mg HPR/kg, i.p.) was stopped after 28 days. A2E levels were then measured 12, 28 and 42 days following the final HPR dose. […] This effect was not observed in animals treated with 13-cis retinoic acid, a result that may be due to the capacity of RPE cells to adapt to, and maintain, low steady-state retinoid levels. […] These findings indicate that high steady-state levels of competitive inhibitors such as 13-cis retinoic acid must be maintained for therapeutic efficacy.

[6] = test system: mice; settings: cited from earlier work

binding to RBP relative to HPR [1]	quenching of RBP fluorescence ([1]; 0.5 μM Apo-RBP, 0-2 μM MPR, PBS, room temperature, 1 hour)	degree of quenching compared with other RBP ligands ([1]; controls 1 μM HPR, 1 μM atROL)	MPR concentration at which quenching saturated ([1]; for 0.5 μM of RBP)	binding to RBP (360 nm absorbance in RBP elution peak) ([2]; 10 μM Apo-RBP, 50 μM MPR)	SMILES	binding of ligand-RBP to TTR [2]	reduction in A2E [3]	time required to regain dark sensitivity [4]	A2E levels after withdrawal (therapeutic latency effect) ([5]; chronic treatment (HPR 10 mg/kg i.p.) stopped after 28 days, measured 12, 28 and 42 days later)	photoreceptor function and ocular retinoid levels following withdrawal ([5]; mouse, in vivo)	11-cis retinyl esters ([6]; increased 13-cis retinoic acid)	levels of 11-cis retinal ([6]; increased doses of 13-cis retinoic acid)
more weakly	concentration-dependent quenching	smaller than those by atROL and HPR	1 µM	RBP binds to MPR	COc1ccc(NC(=O)\C=C(C)/C=C/C=C(C)\C=C\C2=C(C)CCCC2(C)C)cc1 (stereo in doubt) [MPR, N-(4-methoxyphenyl)retinamide]	did not bind to TTR; also recorded: inhibits the binding of TTR to RBP						
					CC1=C(/C=C/C(C)=C/C=C/C(C)=C\C(=O)O)C(C)(C)CCC1 [13-cis retinoic acid]		~50%	several hours	not observed	quickly returned to baseline values	increased dramatically	significantly reduced
					CC1=C(/C=C/C(C)=C/C=C/C(C)=C/CO)C(C)(C)CCC1 [atROL, all-trans retinol]	binds to TTR						
